{"source": "patent US7595313B2", "about": "“Nitric oxide donating diuretic compounds, compositions and methods of use” (NicOx, S.A., priority 2005, dated 2009)", "key": {"Male Wistar rats": {"tested_on": "Male Wistar rats", "experiment": "Determination of the diuresis (urine volume over 6 hours after oral dosing)", "assay_type": "in vivo, rat", "conditions": "male Wistar rats, 6 hours, mean ± SEM, n=6 or 7; for Urine collected in 6 hours (mL) (3 mg/kg): p.o. 3 mg/kg in 0.5% Methocel", "outline": "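Male Wistar rats (180-200 g) in metabolic cages, fasted 18 h, water withdrawn 90 min before dosing. Compounds in 0.5% Methocel given p.o. at 30 or 3 mg/kg; urine volume collected over 6 h. Mean ±SEM, n=6 or 7.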"}, "Dahl salt sensitive rats": {"tested_on": "Dahl salt sensitive rats", "experiment": "Blood pressure determination under in vivo conditions in the Dahl salt sensitive rat", "conditions": "Dahl salt sensitive rats on high salt (8%) diet, gavage twice a day, 30 mg/kg HCT equivalent, telemetry, FIG. 1", "protocol": "The effect of subchronic administration of Example 1c and hydrochlorothiazide (HCT) on blood pressure was assessed in telemeterized male Dahl salt sensitive rats (5-6 weeks old; 125-150 g) fed a high salt (8%) diet for 4 weeks. Compounds were administered twice a day for 7 eight days via gavage at 30 mg/kg HCT equivalent in a 0.5% methylcellulose vehicle. Blood pressure was continuously monitored by telemetry and reported as a change in mean arterial blood pressure (MABP) over a 24 h period."}, "[1]": {"tested_on": "Spontaneously Hypertensive rats (SHR)", "experiment": "Blood pressure determination under in vivo conditions in the Spontaneously Hypertensive rat", "conditions": "gavage twice a day, 30 mg/kg HCT equivalent, telemetry, FIG. 2", "protocol": "The effect of subchronic administration of Example 17b and hydrochlorothiazide (HCT) on blood pressure was assessed in telemeterized male Spontaneously Hypertensive rats (SHR; 9-10 weeks old; 250-300 g). Compounds were administered twice a day for 7 eight days via gavage at 30 mg/kg HCT equivalent in a 0.5% methylcellulose vehicle. Blood pressure was continuously monitored by telemetry and reported as a change in mean arterial blood pressure (MABP) over a 24 h period."}, "[2]": {"tested_on": "isolated rat aorta precontracted with phenylephrine", "experiment": "In vitro relaxant effect in rat aorta", "protocol": "The ability of Example 46b to relax isolated rat aorta precontracted with phenylephrine (1 μM) was studied. Example 46b was an efficacious relaxant agent in the rat aorta with an EC50 value of ˜7 μM. The vasorelaxant response elicited by Example 46b was abolished in the presence of ODQ, a potent and selective inhibitor of nitric oxide (NO)-sensitive guanylyl cyclase."}, "plasma renin": {"tested_on": "plasma renin", "experiment": "Rat renin inhibition under in vivo conditions (chronic administration via mini-osmotic pumps)", "conditions": "for RENIN (Relative Units) DAY 0: Day 0 tail vein blood sample; for RENIN (Relative Units) DAY 0 / RENIN (Relative Units) Day 29: male Wistar rats, N=8; for RENIN (Relative Units) Day 29: terminal plasma day 29 after 28 days s.c. mini-pump, 10 mg/kg/day molar equivalent doses", "protocol": "(§1) The effect of chronic administration of Example 51 and hydrochlorothiazide (HCT) on plasma aldosterone and renin levels was tested in male Wistar rats. Compounds were administered via mini-osmotic pumps implanted subcutaneously in the scapular area of the rats using asceptic techniques. Molar equivalent doses of HCT and Example 51 (10 mg/kg/day) in 50% DMSO/PEG300 were delivered for 28 days via Alzet mini-pumps and compared to vehicle treated animals. A 250 μl blood sample was obtained from tail vein cannulae for analysis of aldosterone and plasma renin levels (Day 0). Terminal plasma was collected on day 29 for analysis of aldosterone and plasma renin levels. Plasma renin and aldosterone were measured utilizing commercially available kits (Cayman Chemical; Ann Arbor, Mich. and Alpha Diagnostics; San Antonio, Tex., respectively)."}, "plasma aldosterone": {"tested_on": "plasma aldosterone", "experiment": "Rat aldosterone inhibition under in vivo conditions (chronic administration via mini-osmotic pumps)", "conditions": "for ALDOSTERONE (pg/ml) DAY 0: Day 0 tail vein blood sample; for ALDOSTERONE (pg/ml) DAY 0 / ALDOSTERONE (pg/ml) Day 29: male Wistar rats, N=8; for ALDOSTERONE (pg/ml) Day 29: terminal plasma day 29 after 28 days s.c. mini-pump, 10 mg/kg/day molar equivalent doses", "protocol": "as §1"}, "[3]": {"conditions": "day 29, 10 mg/kg/day for 28 days, result in words"}}, "note": "Marks after values point to notes of the source that are not given here.", "data": [{"molecule": "NS(=O)(=O)c1cc2c(cc1Cl)NC(CCCCCO[N+](=O)[O-])NS2(=O)=O", "note": "(stereo not shown) [Example 1c, 2H-1,2,4-Benzothiadiazine-7-sulfonamide, 6-chloro-3,4-dihydro-3-[5-(nitrooxy)pentyl]-, 1,1-dioxide]", "values": [{"measurement": "Urine collected in 6 hours (mL) (3 mg/kg)", "setting": "Male Wistar rats", "result": "6.6 ± 0.4", "unit": "mL"}, {"measurement": "Urine collected in 6 hours (mL) (30 mg/kg)", "setting": "Male Wistar rats; p.o. 30 mg/kg in 0.5% Methocel", "result": "7.6 ± 0.5", "unit": "mL"}, {"measurement": "reductions in blood pressure (mean arterial blood pressure) during the treatment period", "setting": "Dahl salt sensitive rats", "result": "approximately 5 mm Hg"}, {"measurement": "melting point", "result": "158 to 161", "unit": "°C"}]}, {"molecule": "NS(=O)(=O)c1cc2c(cc1Cl)NC(CCCCO[N+](=O)[O-])NS2(=O)=O", "note": "(stereo not shown) [Example 17b, 2H-1,2,4-Benzothiadiazine-7-sulfonamide, 6-chloro-3,4-dihydro-3-[4-(nitrooxy)butyl]-, 1,1-dioxide]", "values": [{"measurement": "reductions in blood pressure (mean arterial blood pressure) during the treatment period, larger than with HCT", "setting": "[1]", "result": "5-6 mm Hg"}, {"measurement": "melting point", "result": "171 to 179", "unit": "°C"}]}, {"molecule": "NS(=O)(=O)c1cc2c(cc1Cl)NCN(CCCCCO[N+](=O)[O-])S2(=O)=O", "note": "[Example 46b, 2H-1,2,4-Benzothiadiazine-7-sulfonamide, 6-chloro-3,4-dihydro-2-[5-(nitrooxy)pentyl]-, 1,1-dioxide]", "values": [{"measurement": "Urine collected in 6 hours (mL) (3 mg/kg)", "setting": "Male Wistar rats", "result": "7.3 ± 0.7", "unit": "mL"}, {"measurement": "vasorelaxant response in the presence of ODQ", "setting": "[2]; ODQ, inhibitor of NO-sensitive guanylyl cyclase, rat aorta precontracted with phenylephrine (1 μM)", "result": "abolished"}, {"measurement": "EC50", "setting": "[2]; Rattus norvegicus, aortic rings precontracted with phenylephrine (1 μM), relaxation as % of maximum by papaverine", "result": "~7", "unit": "µM"}, {"measurement": "melting point", "result": "120 to 123", "unit": "°C"}]}, {"molecule": "NS(=O)(=O)c1cc2c(cc1Cl)NCN(CCO[N+](=O)[O-])S2(=O)=O", "note": "[Example 51, 2H-1,2,4-Benzothiadiazine-7-sulfonamide, 6-chloro-3,4-dihydro-2-[2-(nitrooxy)ethyl]-, 1,1-dioxide]", "values": [{"measurement": "Urine collected in 6 hours (mL) (3 mg/kg)", "setting": "Male Wistar rats", "result": "8.0 ± 1.1", "unit": "mL"}, {"measurement": "RENIN (Relative Units) DAY 0", "setting": "plasma renin", "result": "6.1 ± 0.3", "unit": "Relative Units"}, {"measurement": "plasma renin measured on day 29 as compared to vehicle or HCT treated rats", "setting": "plasma renin; [3]", "result": "significantly lowered"}, {"measurement": "RENIN (Relative Units) Day 29", "setting": "plasma renin", "result": "9.5 ± 0.5^a,b Relative Units"}, {"measurement": "ALDOSTERONE (pg/ml) DAY 0", "setting": "plasma aldosterone", "result": "540.8 ± 38.9", "unit": "pg/mL"}, {"measurement": "plasma aldosterone measured on day 29 as compared to vehicle or HCT treated rats", "setting": "plasma aldosterone; [3]", "result": "significantly lowered"}, {"measurement": "ALDOSTERONE (pg/ml) Day 29", "setting": "plasma aldosterone", "result": "1326.6 ± 118.7^c pg/ml"}, {"measurement": "melting point", "result": "161 to 163 °C (dec.)"}]}, {"molecule": "NS(=O)(=O)c1cc2c(cc1Cl)NCNS2(=O)=O", "note": "[HCT, hydrochlorothiazide, reference compound]", "values": [{"measurement": "RENIN (Relative Units) DAY 0", "setting": "plasma renin", "result": "5.0 ± 0.6", "unit": "Relative Units"}, {"measurement": "RENIN (Relative Units) Day 29", "setting": "plasma renin", "result": "24.6 ± 1.0", "unit": "Relative Units"}, {"measurement": "ALDOSTERONE (pg/ml) DAY 0", "setting": "plasma aldosterone", "result": "411.5 ± 41.8", "unit": "pg/mL"}, {"measurement": "ALDOSTERONE (pg/ml) Day 29", "setting": "plasma aldosterone", "result": "2081.0 ± 232.1", "unit": "pg/mL"}]}]}
